In article PMC9166630, “SAR Probing of KX2-391 Provided Analogues With Juxtaposed Activity Profile Against Major Oncogenic Kinases” (Frontiers in Oncology, 2022):

What was measured:
HCT116 cell line = experiment: MTT anti-proliferative assay, HCT116; assay type: cell-based, human; conditions: Homo sapiens, HCT-116, 72 h, maximum tested concentration 50 µM, read-out: IC50 ± SEM, HCT116
Protocol: The test compounds were evaluated for anti-proliferative activity using the MTT viability assay against HCT116 cell line. Cells were seeded in triplicate in 96-well plates at a density of 10x 10^3 cells/mL in a total volume of 200 µL per well. 0.1% of DMSO was used as a vehicle control. Each well was treated with 2 µL test compounds, which had been pre-prepared as stock solutions in […] to furnish the concentration range of study, 0.1 µM to 50 µM, and re-incubated for a further 72 h at 37°C in a humidified atmosphere containing 5% CO2. The culture medium was then removed, and the cells were washed with 100 µL PBS and 100 µL MTT was added, to reach a final concentration of 1 mg/mL MTT. Cells were incubated for 3 h in darkness at 37°C. After that, MTT solution was removed and MTT was solubilized by adding […] DMSO. The cells were maintained at room temperature in darkness for 20 min to ensure thorough color diffusion before reading the absorbance using a microplate reader at 570 nm. All experiments were conducted in triplicates. Results were expressed as percentage viability relative to vehicle control (100%). Dose response curves were plotted and IC50 values (concentration of drug resulting in 50% reduction in cell survival) were obtained using the commercial software package Prism (GraphPad Software, Inc., La Jolla, CA, USA).

CYP2D6 = molecular target: T1, CYP2D6 (Homo sapiens, UniProt P10635); experiment: Inhibition assay of human CYP450 enzymes, 2D6; assay type: in vitro ADME; conditions: for IC50: fluorescent substrate; for no inhibition of CYP2D6 at concentrations up to: the values are: IC50
T1 construct: purchased Fisher Scientific; host or cells: insect cells (supersomes)
Protocol: The two compounds 4e and 4n were assessed for their ability to inhibit the three major human CYP450 enzymes, 3A4, 2D6 and 2C9. Assays were run in triplicate. Expressed enzymes in insect supersomes (Fisher Scientific, Waltham, MA) were used to minimize non-specific binding and membrane partitioning issues ([68]). The 3A4 assay uses testosterone as a substrate and analysis was performed by LC/MS/MS on a Waters Xevo TQ instrument as described above using positive electrospray ionization. Assay acceptance criteria was 20% for all standards and 25% for the LLOQ. The 2D6 and 2C9 assays use fluorescent substrates (3-[2-(N,N-diethylamino)ethyl]-7-methoxy-4-methylcoumarin for 2D6; 7-methoxy-4-(trifluoromethyl)coumarin for 2C9) and were analyzed on an Envision plate reader. GraphPad® Prism v 5.04 was used for nonlinear fitting of data to generate IC50 values.

K562 leukemia cell line = experiment: CellTiter-Blue cell viability assay, K562; assay type: cell-based; conditions: Homo sapiens, CellTiter-Blue, 48 h, maximum tested concentration 20 µM, read-out: IC50 ± SEM, K562
Protocol: HL60, K562, MV4-11 and NB4 were purchased from CLS Cell Line Service GmbH (Eppelheim, Germany). All cell lines were cultured in RPMI-1640 medium supplemented with 10% fetal bovine serum (FBS) (Thermo Fisher Scientific) and 0.1% ciprofloxacin (2.5mg/ml; Cipla Limited; Mumbai, India), and were maintained at 37°C in the presence of 21% O2 and 5% CO2.
Cell viability was determined using the CellTiter®-Blue Cell Viability Assay kit (Promega, Madison, WI, USA). Approximately 10^4 cells were counted and plated in a 96-well plate in the presence of test compounds ranging from 0.01 to 10 or 20 µM in triplicate and were incubated for 48 h at 37°C in a humidified incubator. After the incubation period was complete, 20 µL of CellTiter®-Blue Cell Viability Assay reagent was added to each well and incubated for additional 2 h for the development of florescence. Florescence was measured at Ex/Em 540/590 on SpectraMax® i3 Multi-Mode microplate reader (Molecular Devices, LLC; San Jose, CA, USA) and plotted against drug concentration to determine the IC50 of the test compounds. The IC50 was obtained by non-linear regression model using GraphPad Prism 6.07 (GraphPad Software, Inc, USA).

[1] = Binding to mouse plasma proteins (equilibrium dialysis); assay type: in vitro ADME; conditions: 10 µM, 37°C, 22 h dialysis
Protocol: The equilibrium dialysis method for determining plasma protein binding was performed as previously described using 96-well dialyzer plates with molecular weight cutoff of 5K (Harvard Aparatus, Holliston, MA) and a dual-plate rotator set to maximum speed (Harvard Aparatus, Holliston, MA) located in a 37°C incubator with a 10% CO2-atmospheric environment. Assays were run in triplicate. The test compounds were added to CD-1 mouse plasma (Innovative Research, Novi, MI, sodium heparin added as anticoagulant; pH adjusted to 7.4 with 2N HCl on day of use) in DMSO (final DMSO concentration 0.4%) to give 10 µM final concentration. Drug/plasma mixture and buffer (Dulbecco’s phosphate-buffered saline 1X without calcium and magnesium, Mediatech, Inc., Herndon, VA) were placed in their respective sides, wells were capped, and the plate was placed in the rotator and allowed to dialyze for 22 h. Following dialysis, aliquots of buffer and plasma mixture were removed and mixed with aliquots of the opposite matrix in 96-well deep plates. Concentrations of analytes from each side of the dialysis plate were determined by LC/MS/MS on a Waters Xevo TQ instrument as described above using positive electrospray ionization. […] The fraction unbound was calculated by dividing the drug concentration in the buffer side of the dialysis plate by the drug concentration in the plasma side.

[2] = Stability in human liver microsomes; assay type: in vitro ADME; conditions: for half-life: human liver microsomes with NADPH, 37°C, read-out: Stability HLM t1/2; for Mic. Ctrl. Human % 60 min: human liver microsomes, no NADPH added
Protocol: Both mouse and human liver microsomes were obtained from Merck KGaA, (Darmstadt, Germany), Cat. No. M9441 (Mouse liver microsomes) and M0317 (Human liver microsomes). Assays were conducted in triplicate in 96-deep well polypropylene plates. […] At five time points, reaction mixture aliquots were transferred to 96-shallow well stop plates on ice containing acetonitrile with 0.1 µM propafenone. […] Standard curves for test compound were generated using 5 concentrations in triplicate that were processed as above but with zero incubation time. Stop plates were centrifuged at 2000 g for 10 min and then supernatant aliquots were transferred to a Waters Aquity® UPLC 700 µL 96-well sample plate with cap mat (Waters, Milford, MA). The amount of compound remaining in the supernatant was quantified by LC/MS/MS using a Waters Xevo TQ MS (electrospray positive mode) coupled to a Waters Aquity® UPLC (BEH column, C18). Propafenone was used as the internal standard. GraphPad® Prism v 5.04 was used for nonlinear fitting of time course data to generate t1/2 values.

T1 sequence (P10635 whole entry): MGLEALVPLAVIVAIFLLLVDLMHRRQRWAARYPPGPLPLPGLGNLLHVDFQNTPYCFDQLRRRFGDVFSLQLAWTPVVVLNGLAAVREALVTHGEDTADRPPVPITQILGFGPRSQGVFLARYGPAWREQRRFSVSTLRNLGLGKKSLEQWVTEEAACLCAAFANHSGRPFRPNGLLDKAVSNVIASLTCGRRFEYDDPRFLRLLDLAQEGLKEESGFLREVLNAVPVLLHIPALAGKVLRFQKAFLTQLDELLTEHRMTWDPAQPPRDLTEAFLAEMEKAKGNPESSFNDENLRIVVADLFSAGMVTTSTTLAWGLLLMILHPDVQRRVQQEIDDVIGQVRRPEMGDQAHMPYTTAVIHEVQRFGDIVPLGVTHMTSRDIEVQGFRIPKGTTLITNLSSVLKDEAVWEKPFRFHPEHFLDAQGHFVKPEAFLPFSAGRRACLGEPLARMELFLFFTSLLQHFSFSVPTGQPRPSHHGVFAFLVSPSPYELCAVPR

Structure (SMILES)	IC50 (HCT116 cell line)	IC50 (CYP2D6)	no inhibition of CYP2D6 at concentrations up to (CYP2D6)	IC50 (K562 leukemia cell line)	Mouse PPB (% free) [1]	half-life [2]	Mic. Ctrl. Human % 60 min [2]
O=C(Cc1ccc(NC(=O)c2cccc(Cl)c2)cc1)NCc1ccccc1 [Compound 4e, N-(4-(2-(benzylamino)-2-oxoethyl)phenyl)-3-chlorobenzamide]	16.8 ± 2.69 µM	> 10 µM	> 10 µM	4.23 ± 0.2 µM	0.8 % free	> 60 min	102%
O=C(Cc1ccc(NC(=O)c2cccc(Cl)n2)cc1)NCc1ccccc1 [Compound 4n, N-(4-(2-(benzylamino)-2-oxoethyl)phenyl)-6-chloropicolinamide]	10.8 µM	> 10 µM	> 10 µM	2.69 ± 0.65 µM	Unstable	40.1 min	98%
